Laboratory results: patent US20070172453A1, “Tolerogenic approach for type 1 diabetes” (priority 2002, published 2007)

Experiments:
[1] = test system: peripheral blood mononuclear cells (PBMCs); experiment: ELISPOT of IFN-γ and IL-10 secreting cells in PBMCs of DQ8+ type 1 diabetic adolescents; type: cell-based, human; conditions: for number of IFN-γ secreting cells / number of IL-10 secreting cells / ratio of IL-10/IFN-γ: peptide 50 μM, DQ8+ type 1 diabetic adolescents; for number of IFN-γ secreting cells / number of IL-10 secreting cells: 48 hours, 1×10^5 PBMCs/well, ±SEM
Method: Ten diabetic patients were selected (6 females, 4 males; age range: 7-16 years of age) which were positive for the DQ8 allele. With the assistance of endocrine pediatricians, appropriate arrangements were made for two sampling sessions. Written and informed consent was obtained from the parents of the adolescents. For each patient, 20 ml of blood was collected in tubes containing EDTA. These tubes were immediately sent to Cypro SA (Brussels) where peripheral blood mononuclear cells (PBMCs) were isolated using the Lymphoprep™ (Invitrogen) isolation technique.
ELISPOT Assays (Cypro): The general methodology has been described by Tary-Lehmann et al. (see, e.g., Tary-Lahmann et al. (1998) Transplantation 66:219-224). Briefly, PBMCs were seeded at a concentration of 1×10^5/well in 96-well plates coated with anti-human IFN-γ monoclonal antibody (mAb) (Serpime/Nodia) or anti-IL-10 mAb (BD-Pharmingen) in the presence or absence of either PHA (Sigma, 1 μg/ml)+LPS (Sigma, 1 μg/ml), Purified Protein Derivative (PPD, 5 μg/ml), Insulin B9-23 (SEQ ID NO:3 ) (10 and 50 μM), IGF-2 B11-25 (SEQ ID NO:2 )(10 and 50 μM After 48 hours of incubation at 37° C., 5% CO2 on a plane surface, wells were washed three times with PBS Tween 0.25%, then blot dried.
After 1 hour-incubation in a humid room at ambient temperature, the plates were washed and the substrate AEC (3-amino-9-ethylcarazole)+30% H2O2 were added. After 15 minutes (for IFN-γ) or 30 minutes (for IL-10) of incubation at ambient temperature, spots appeared and the reaction was stopped by washing the plates under water. After drying, the spots were counted by image analyzer assisted by computer with filters specific for each cytokine.
A Wilcoxon test was used for statistical analyses (non-parametric paired values).

[2] = test system: NOD mice; conditions: cited from earlier work
[3] = test system: CD4-mediated, HLA-II restricted immune response; conditions: patients with IDDM; cited from earlier work
[4] = test system: peripheral blood mononuclear cells (PBMCs); experiment: ELISpot of IL-10 secreting cells in PBMCs from healthy controls and adult Type 1 diabetics; type: cell-based, human; conditions: 50 μM, 48h
Method: In comparison to the Insulin B9-23 peptide (SEQ ID NO:3), the presentation of IGF-2 B11-25 (SEQ ID NO:2) increases the number of IL-10 secreting cells in peripheral blood mononuclear cells (PBMCs) from adult Type I diabetics. PBMCs were isolated by a conventional method from the blood of 6 healthy controls and 18 adult Type 1 diabetic patients. The PBMCs were cultured for 48h in 96-well dishes in the presence of IGF-2 B11-25 (SEQ ID NO:2)(50 μM) or […] (50 μM).
The data are presented in FIG. 4 as the number of spots per 10^5 cells. Statistical analyses were performed using Wilcoxon's test.

[5] = test system: PBMCs; experiment: IL-10 concentration in PBMC culture supernatants by ELISA; type: cell-based, human; conditions: 20h-culture
Method: PBMCs were isolated from the blood of 10 healthy controls and 13 adult type 1 diabetics. After a 20h-culture, IL-10 concentration in the supernatants was measured using a specific ELISA (BioSource, Nivelles, Belgium).

[6] = test system: PBMCs; experiment: IL10 transcription in PBMCs by TaqMan real-time PCR; type: cell-based, human; conditions: 50 μM, 20 hours
Method: Total RNA was extracted with the RNeasy Mini Kit (Qiagen, Calif., USA) from PBMCs isolated from 10 healthy controls and from 11 Type 1 diabetics, and cultured for 20 hours with IGF-2 B11-25 (SEQ ID NO:2)(50 μM) or Insulin B9-23 (SEQ ID NO:3 ) (50 μM). Total RNA was measured with a Nanodrop (NanoDrop Technologies, Wilmington, USA). Reverse transcription was performed with Transcriptor First Strand cDNA Synthesis Kit (Roche, Germany). PCR was performed with the following probes:
IL10 transcripts were then quantified using a TaqMan procedure. Standard curves were established from a lot of plasmid containing IL10 according to the procedure described by other authors (Giulietti et al., Methods 25: 386, 2001). […] A strong positive relationship was evidenced between IL-10 concentrations as measured by ELISA and the number of IL10 transcripts as quantified by real-time PCR (R^2=0.62, P<0.0001; Spearman's test). Conclusions

[7] = test system: spleen cells from Igf2-/- and wt mice; experiment: IL-2 production by IGF-2-specific T cells (spleen cells) after immunization and in vitro stimulation; type: cell-based, mouse; conditions: spleen cells in culture with murine IGF-2-derived B11-25 after two i.p. injections
Method: (§1) Mice immunization. Igf2^−/− and wt mice were injected i.p. with 5 μg of rmIGF-2 (R&D Systems) or with 5 μg of human insulin (Roche) to study the humoral response and with 50 μg of murine IGF-2-derived B11-25 (NEOSYSTEM)(SEQ ID NO:2) to analyze the cellular response. CFA (Sigma-Aldrich) (v/v) is used for the first injection and IFA (Sigma-Aldrich) (v/v) for the other injections. For humoral response, three injections separated by 20 days were performed. Blood test was performed 15 days after each injection in agreement with the Liege University ethic committee. For cellular response, two injections separated by 15 days were performed.
IL-2 production. After 48, 72, and 96 h of MLR or after 24 and 48 h of specific T cell culture, 800 μl were removed of each condition and IL-2 production released by Igf2^−/− and wt T cells in MLR was assessed by specific ELISA (Biosource Europe).
Statistical analyses. The t test was used to compare Igf2^−/− and wt mice in IL-2 production and Ab production after immunization. The level of significance was p<0.05.

[8] = test system: Igf2-/- and wt mice; experiment: Anti-insulin humoral response after i.p. immunization of Igf2-/- and wt mice (ELISA); type: in vivo, mouse; conditions: three i.p. injections, mice with day 0 anti-insulin Ab lower than 1 in OD
Method: as §1
Dosage of anti-IGF-2 and anti-insulin Abs. Abs against IGF-2 and insulin were detected and quantified using a specific ELISA procedure. Microplates (Nunc Maxisorp 468667; VVWR International) were incubated overnight at 4° C. with 2 μg/ml rmIGF-2 (R&D Systems) or 5 μg/ml human insulin (Roche) in 100 μl of 0.1 M NaHCO3 (pH 8.4). From this step, the procedure was identical between the two kinds of ELISA. SL buffer (0.01 M phosphate buffer, pH 7.4) was used as the basic buffer, and all reactions were incubated at 37° C. under agitation. […] The reaction was stopped with 50 μl of 0.4 N HCl, and the absorbance was measured at 450-620 nm with a spectrophotometer. […]

[9] = cited from earlier work
[10] = test system: Igf2-/- and wt mice; experiment: Anti-IGF-2 humoral response after i.p. immunization of Igf2-/- and wt mice (ELISA); type: in vivo, mouse; conditions: i.p. immunization 5 μg
Method: as §1
Dosage of anti-IGF-2 and anti-insulin Abs. Abs against IGF-2 and insulin were detected and quantified using a specific ELISA procedure. Microplates (Nunc Maxisorp 468667; VVWR International) were incubated overnight at 4° C. with 2 μg/ml rmIGF-2 (R&D Systems) or 5 μg/ml human insulin (Roche) in 100 μl of 0.1 M NaHCO3 (pH 8.4). From this step, the procedure was identical between the two kinds of ELISA. SL buffer (0.01 M phosphate buffer, pH 7.4) was used as the basic buffer, and all reactions were incubated at 37° C. under agitation. […] The reaction was stopped with 50 μl of 0.4 N HCl, and the absorbance was measured at 450-620 nm with a spectrophotometer.

Substance: SHLVEALYLVCGERG (listed as Homo sapiens) [insulin B9-23, reference compound]
- number of IFN-γ secreting cells [1]: 88.90±23.82
- number of IL-10 secreting cells [1]: 701.8±160.9
- ratio of IL-10/IFN-γ [1]: 10.22±1.99
- anaphylaxis [2]: induces fatal anaphylaxis
- incidence of diabetes [2]: accelerates incidence of diabetes
- IFN-γ production in response to peptide presentation [3]: high production of IFN-γ

Substance: GELVDTLQFVCGDRG (listed as Homo sapiens) [IGF-2 B11-25]
- ratio IL-10/IFN-γ, fold higher than after insulin B9-23 ([1]; 50 μM, versus insulin B9-23): ~7 fold
- number of IFN-γ secreting cells [1]: 45.60±11.67
- number of IL-10 secreting cells [1]: 1162±208.6
- ratio of IL-10/IFN-γ [1]: 67.36±37.58
- number of IL-10 secreting cells versus Insulin B9-23 ([4]; PBMCs from healthy controls): no significant difference
- number of IL-10 secreting cells versus Insulin B9-23 ([4]; PBMCs of adult Type 1 diabetics): significantly higher
- IL-10 concentration in supernatants versus basal conditions or Insulin B9-23 ([5]; PBMC cultures from Type 1 diabetics): significantly increased
- IL-10 concentration in supernatants versus basal conditions or Insulin B9-23 ([5]; PBMC cultures from healthy controls): significantly increased
- IL10 transcription ([6]; PBMCs from adult Type 1 diabetics): very significantly increases
- IL10 transcription ([6]; PBMCs from healthy controls): very significantly increases
- IL-2 production, Igf2-/- compared with wt mice [7]: significant increase of IL-2 production

Substance: insulin: human insulin (Roche) for mice immunization; insulin given orally or subcutaneously in cited trials
- anti-insulin Ig-specific humoral response, Igf2-/- compared with Igf2+/+ mice [8]: higher anti-insulin Ig-specific humoral response
- protection of residual β cell function ([9]; oral administration, recent-onset IDDM): failed to protect the residual β cell function
- delay or prevention of onset of disease ([9]; subcutaneous administration, high-risk relatives of patients with IDDM): did not delay or prevent the onset of disease

Substance: IGF-2: rmIGF-2 (R&D Systems), insulin-like growth factor 2 used for mice immunization
- anti-IGF-2 humoral response ([10]; Igf2-deficient mice): rapidly induced anti-IGF-2 Abs
- anti-IGF-2 T-dependent humoral response (IgG1, IgG2a, IgG2b) ([10]; wt mice): no T-dependent response was observed
